According to ChEMBL document CHEMBL1201862, “PubChem BioAssay data set” (2004):
Active and inactive are the calls of the source.

Experiments:
[1] = luciferase reporter signal suppression in cells – H4 neuroglioma cells, luminescence, dose response (AID 1990); type: functional, cell-based
[2] = Luminescence Cell-Based Dose Response HTS to Identify Inhibitors of 5'UTR Stem-Loop Driven Prion Protein mRNA Translation in H4 Neuroglioblastoma Cells. [Related pubchem assays: 1827 (Project Summary), 1813 (Primary HTS)]; type: functional
[3] = alpha-synuclein stem-loop luciferase translation blockers – H4 neuroglioma cells, luminescence, confirmation (AID 1988); type: functional, cell-based
[4] = test system: Escherichia coli; assay: microbe, parasite or virus in culture
[5] = target: T1, Bcl-2-related protein A1 (Mus musculus, UniProt Q07440); type: functional;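 note: confirmatory dose–response counterscreen on Bfl-1, used to check hits from a UBC13 polyubiquitin inhibitor campaign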
T1 sequence (Q07440 whole entry): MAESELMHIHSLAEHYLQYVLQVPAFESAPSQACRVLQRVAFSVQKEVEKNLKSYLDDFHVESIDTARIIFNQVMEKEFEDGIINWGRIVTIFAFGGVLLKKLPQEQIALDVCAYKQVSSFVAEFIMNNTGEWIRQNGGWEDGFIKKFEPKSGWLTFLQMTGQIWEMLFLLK

[6] = target: T2, Ubiquitin-conjugating enzyme E2 N (Homo sapiens, UniProt P61088); type: functional
T2 sequence (P61088 whole entry): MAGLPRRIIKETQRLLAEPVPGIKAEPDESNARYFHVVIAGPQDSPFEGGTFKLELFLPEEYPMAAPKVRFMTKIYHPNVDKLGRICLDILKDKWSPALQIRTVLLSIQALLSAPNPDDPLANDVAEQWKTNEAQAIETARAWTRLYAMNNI

[7] = target: T2, Ubiquitin-conjugating enzyme E2 N; type: functional; remark: listed apart in the source
[8] = test system: Escherichia coli; assay: microbe, parasite or virus in culture; remark: listed apart in the source
[9] = target: T3, Endoribonuclease toxin MazF (Escherichia coli K-12, UniProt P0AE70); assay: activation of MazEF endoribonuclease cleavage – biochemical, fluorescence, single-stranded RNA substrate, uHTS hits, dose response (AID 588481); type: functional
T3 sequence (P0AE70 whole entry): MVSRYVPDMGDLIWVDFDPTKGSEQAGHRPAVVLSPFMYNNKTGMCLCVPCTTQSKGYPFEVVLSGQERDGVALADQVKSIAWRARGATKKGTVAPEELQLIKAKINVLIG

[10] = target: T3, Endoribonuclease toxin MazF; assay: substrate-only fluorescence increase artefacts – biochemical, single-stranded RNase substrate, counter-screen for MazEF activator project, dose response (AID 588502); type: functional
[11] = NIH-3T3 fibroblast cytotoxicity, dose response, cytotoxicity control, cell-based, fluorescence, Alamar Blue, secondary assay (AID 2327); type: functional;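 note: NIH-3T3 mouse fibroblasts cultured with fluconazole at 8 µg/mL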
[12] = fluconazole-exposed Candida albicans growth modulators – fluorescence, retest, confirmation (AID 2467); type: functional, cell-based
[13] = target: T4, Serine/threonine-protein phosphatase (Candida dubliniensis (strain CD36 / CBS 7987 / NCPF 3949 / NRRLY-17841) (Yeast), UniProt B9W6M3); assay: blockers of CaCl2-induced CDRE-lacZ signaling – S. cerevisiae, luminescence, secondary, dose response (AID 2388); type: functional, cell-based;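 note: yeast reporter cells carrying a calcineurin-responsive lacZ construct stimulated with calcium chloride; luminescent beta-galactosidase reporter signal in whole cells rather than isolated phosphatase activity; potency for inhibition where a drop in reporter signal means calcineurin blockade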
T4 sequence (B9W6M3 whole entry): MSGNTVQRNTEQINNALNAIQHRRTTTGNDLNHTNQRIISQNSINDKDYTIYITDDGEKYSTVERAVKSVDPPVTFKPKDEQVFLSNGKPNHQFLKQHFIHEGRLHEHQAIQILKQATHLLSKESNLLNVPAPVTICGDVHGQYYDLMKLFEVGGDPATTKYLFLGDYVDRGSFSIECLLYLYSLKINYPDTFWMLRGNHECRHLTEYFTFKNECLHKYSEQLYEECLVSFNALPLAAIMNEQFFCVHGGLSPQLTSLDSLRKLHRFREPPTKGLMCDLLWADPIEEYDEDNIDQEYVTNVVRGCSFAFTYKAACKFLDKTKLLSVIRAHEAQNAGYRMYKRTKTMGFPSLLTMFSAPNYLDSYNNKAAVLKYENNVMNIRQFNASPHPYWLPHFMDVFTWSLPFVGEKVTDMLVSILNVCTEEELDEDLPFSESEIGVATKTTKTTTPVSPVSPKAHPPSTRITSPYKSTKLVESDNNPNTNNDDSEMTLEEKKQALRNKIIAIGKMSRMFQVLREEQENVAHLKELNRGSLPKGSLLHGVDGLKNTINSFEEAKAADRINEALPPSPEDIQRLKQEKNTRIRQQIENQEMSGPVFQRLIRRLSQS

[14] = target: ATP-dependent molecular chaperone HSP82 (Candida albicans (strain WO-1) (Yeast), UniProt C4YTQ8); assay: steroid-induced GRE reporter decrease in yeast – S. cerevisiae, luminescence, Hsp90 inhibitor project, dose response (AID 2400); type: functional, cell-based;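 note: beta-galactosidase luminescence from glucocorticoid response element reporter as proxy for Hsp90 function; inhibitor potency where signal loss means Hsp90 inhibition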
[15] = target: T5, Replicative DNA helicase DnaB (Mycobacterium tuberculosis, UniProt P9WMR3); assay: DnaB intein splicing inhibitors, dose response, biochemical, cell-free fluorescence (AID 449749); type: functional
T5 sequence (P9WMR3 whole entry): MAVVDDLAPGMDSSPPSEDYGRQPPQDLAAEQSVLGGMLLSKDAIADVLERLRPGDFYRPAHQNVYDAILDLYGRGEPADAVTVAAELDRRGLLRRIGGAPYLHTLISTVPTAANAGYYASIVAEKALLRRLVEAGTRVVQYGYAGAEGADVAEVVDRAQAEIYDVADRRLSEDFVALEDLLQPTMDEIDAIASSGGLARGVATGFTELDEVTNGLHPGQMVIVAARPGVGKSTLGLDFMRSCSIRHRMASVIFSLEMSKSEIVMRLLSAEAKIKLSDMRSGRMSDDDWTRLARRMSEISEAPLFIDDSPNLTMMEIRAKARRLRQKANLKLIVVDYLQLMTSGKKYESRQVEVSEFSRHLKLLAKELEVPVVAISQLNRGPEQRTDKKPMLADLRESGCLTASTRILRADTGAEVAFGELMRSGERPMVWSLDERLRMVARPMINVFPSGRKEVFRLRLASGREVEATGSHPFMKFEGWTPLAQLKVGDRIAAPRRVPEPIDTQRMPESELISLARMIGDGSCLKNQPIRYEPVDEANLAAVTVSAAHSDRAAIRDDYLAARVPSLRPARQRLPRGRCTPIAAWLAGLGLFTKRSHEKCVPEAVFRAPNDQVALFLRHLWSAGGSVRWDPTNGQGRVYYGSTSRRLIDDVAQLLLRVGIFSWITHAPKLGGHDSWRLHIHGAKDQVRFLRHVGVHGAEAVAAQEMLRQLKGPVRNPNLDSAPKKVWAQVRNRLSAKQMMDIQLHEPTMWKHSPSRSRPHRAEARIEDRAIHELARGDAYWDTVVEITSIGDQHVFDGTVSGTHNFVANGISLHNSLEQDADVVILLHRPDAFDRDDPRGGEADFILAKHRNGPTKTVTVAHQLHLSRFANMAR

[16] = target: T6, Apoptotic protease-activating factor 1 (Homo sapiens, UniProt O14727); type: functional
T6 sequence (O14727 whole entry): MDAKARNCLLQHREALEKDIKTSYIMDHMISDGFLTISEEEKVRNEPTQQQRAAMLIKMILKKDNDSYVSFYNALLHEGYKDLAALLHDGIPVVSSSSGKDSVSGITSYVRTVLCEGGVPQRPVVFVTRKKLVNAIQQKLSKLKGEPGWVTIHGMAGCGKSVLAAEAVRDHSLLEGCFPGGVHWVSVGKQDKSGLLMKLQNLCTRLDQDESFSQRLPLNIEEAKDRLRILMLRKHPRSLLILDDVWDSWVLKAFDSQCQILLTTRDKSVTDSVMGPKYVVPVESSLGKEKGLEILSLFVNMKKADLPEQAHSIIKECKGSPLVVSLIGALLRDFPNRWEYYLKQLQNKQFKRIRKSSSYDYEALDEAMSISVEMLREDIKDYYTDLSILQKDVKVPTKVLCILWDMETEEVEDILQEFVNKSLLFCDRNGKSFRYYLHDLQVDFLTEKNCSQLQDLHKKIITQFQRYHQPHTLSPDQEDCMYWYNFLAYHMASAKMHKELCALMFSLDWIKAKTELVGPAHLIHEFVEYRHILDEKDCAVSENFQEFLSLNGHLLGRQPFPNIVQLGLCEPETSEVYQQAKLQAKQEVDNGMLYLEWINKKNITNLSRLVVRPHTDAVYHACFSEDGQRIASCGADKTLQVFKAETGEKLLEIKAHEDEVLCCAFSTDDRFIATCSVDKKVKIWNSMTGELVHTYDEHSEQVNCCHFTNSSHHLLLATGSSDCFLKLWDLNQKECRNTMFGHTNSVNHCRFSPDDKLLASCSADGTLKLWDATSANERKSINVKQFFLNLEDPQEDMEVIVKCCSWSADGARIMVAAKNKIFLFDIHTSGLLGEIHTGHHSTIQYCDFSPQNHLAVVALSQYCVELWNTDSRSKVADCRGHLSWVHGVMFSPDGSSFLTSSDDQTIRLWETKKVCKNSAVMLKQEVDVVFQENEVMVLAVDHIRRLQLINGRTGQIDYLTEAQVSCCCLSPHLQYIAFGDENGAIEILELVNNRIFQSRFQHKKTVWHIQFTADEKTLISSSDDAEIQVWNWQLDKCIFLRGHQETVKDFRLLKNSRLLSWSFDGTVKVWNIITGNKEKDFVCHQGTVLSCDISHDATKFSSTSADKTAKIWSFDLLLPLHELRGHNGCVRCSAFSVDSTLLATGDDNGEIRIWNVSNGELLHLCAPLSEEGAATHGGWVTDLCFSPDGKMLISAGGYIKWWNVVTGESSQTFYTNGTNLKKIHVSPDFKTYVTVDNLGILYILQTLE

[17] = target: T7, Protein RecA (Mycobacterium tuberculosis, UniProt P9WHJ3); assay: Fluorescence Cell-Free Homogeneous Dose Retest to Identify Inhibitors of RecA-Intein Splicing Activity. [Related pubchem assays (depositor defined):AID2097, AID2223, AID489010, AID492950]; type: functional
T7 sequence (P9WHJ3 whole entry): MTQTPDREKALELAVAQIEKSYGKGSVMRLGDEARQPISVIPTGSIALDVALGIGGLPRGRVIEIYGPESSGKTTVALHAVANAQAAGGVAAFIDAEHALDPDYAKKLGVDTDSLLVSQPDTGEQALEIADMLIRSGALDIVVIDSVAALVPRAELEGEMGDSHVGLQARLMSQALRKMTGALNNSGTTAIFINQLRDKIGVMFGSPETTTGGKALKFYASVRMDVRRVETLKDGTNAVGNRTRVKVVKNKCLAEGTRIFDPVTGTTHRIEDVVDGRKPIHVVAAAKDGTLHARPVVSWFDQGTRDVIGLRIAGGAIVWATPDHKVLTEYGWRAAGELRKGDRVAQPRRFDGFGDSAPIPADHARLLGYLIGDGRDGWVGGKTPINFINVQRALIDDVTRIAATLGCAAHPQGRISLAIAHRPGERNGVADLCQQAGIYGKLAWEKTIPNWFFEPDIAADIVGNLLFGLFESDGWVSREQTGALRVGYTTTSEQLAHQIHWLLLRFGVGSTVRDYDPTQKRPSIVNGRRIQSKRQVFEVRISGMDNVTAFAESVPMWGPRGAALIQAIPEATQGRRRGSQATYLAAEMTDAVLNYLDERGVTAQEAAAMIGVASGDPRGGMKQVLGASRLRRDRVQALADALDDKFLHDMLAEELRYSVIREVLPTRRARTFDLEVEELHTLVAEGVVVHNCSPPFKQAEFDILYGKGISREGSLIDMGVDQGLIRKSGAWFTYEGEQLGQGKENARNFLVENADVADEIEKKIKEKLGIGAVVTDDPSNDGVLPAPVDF

Sequence of ATP-dependent molecular chaperone HSP82 (C4YTQ8 whole entry): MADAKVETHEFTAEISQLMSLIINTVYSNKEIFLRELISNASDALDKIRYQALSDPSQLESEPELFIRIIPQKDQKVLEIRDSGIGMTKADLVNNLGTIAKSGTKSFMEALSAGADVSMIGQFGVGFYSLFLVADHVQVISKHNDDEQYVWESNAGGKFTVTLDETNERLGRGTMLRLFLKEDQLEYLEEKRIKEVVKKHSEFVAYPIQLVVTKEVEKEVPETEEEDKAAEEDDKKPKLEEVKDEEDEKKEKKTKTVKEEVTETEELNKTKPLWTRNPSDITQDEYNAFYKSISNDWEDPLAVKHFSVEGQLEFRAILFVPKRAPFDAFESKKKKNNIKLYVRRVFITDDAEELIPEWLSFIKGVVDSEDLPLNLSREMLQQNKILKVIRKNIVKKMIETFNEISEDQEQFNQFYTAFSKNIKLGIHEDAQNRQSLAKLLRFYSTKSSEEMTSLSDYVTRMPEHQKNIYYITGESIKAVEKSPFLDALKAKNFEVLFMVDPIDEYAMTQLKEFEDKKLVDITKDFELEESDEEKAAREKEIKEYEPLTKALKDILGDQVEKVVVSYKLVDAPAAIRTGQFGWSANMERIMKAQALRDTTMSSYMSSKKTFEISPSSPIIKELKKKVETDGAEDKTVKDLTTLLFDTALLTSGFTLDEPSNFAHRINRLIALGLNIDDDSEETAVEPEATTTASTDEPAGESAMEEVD

## Cc1ccnc(SCCn2c(N3CC(C)CC(C)C3)nc3c2c(=O)n(C)c(=O)n3C)n1 (stereo unspecified)
[1]
  EC50: 39.1 µM (active)
[2]
  EC50: > 120 µM (not active)
[3]
  EC50: > 120 µM (not active)
[4]
  AC50: 35.1 µM (active)

## O=[N+]([O-])c1ccc2[nH]c(O)c(N=NC(S)=NCC3CCCO3)c2c1 (stereo unspecified)
[5]
  IC50: > 20 µM (inactive)
[6]
  IC50: 15.9 µM (active)
[7]
  IC50: 0.664 µM (active)

## O=C1CC(c2cc(-c3ccccc3)no2)C1
[8]
  AC50: 34.5 µM (active)

## COc1ccc(S(=O)(=O)N2CCCCCC2)cc1NC(=O)c1c2c(nc3ccccc13)CCN(Cc1ccccc1)C2
[8]
  AC50: 26 µM (active)
[4]
  AC50: 52 µM (active)

## CC(C)(C)c1cc(NS(=O)(=O)c2ccc3c(c2)OCCO3)on1
[4]
  AC50: 31 µM (active)

## Cc1ccc(S(=O)(=O)n2cc(C=O)c3ccccc32)cc1
[5]
  IC50: > 20 µM (inactive)
[6]
  IC50: 9.59 µM (active)
[7]
  IC50: 11 µM (active)

## COC(=O)C1=C(C)N(Cc2ccco2)C(=O)/C1=C\c1ccc(N(C)C)cc1
[9]
  EC50: 10.7 µM (active)
[10]
  EC50: 37.5 µM (inactive)

## CCc1nnc(NC(=O)CN2CCN(c3nc(-c4ccccc4)cs3)CC2)s1
[11]
  EC50: > 150 µM (inconclusive)
[12]
  EC50: 1.18 µM (active)
[13]
  EC50: > 180 µM (inactive)
[14]
  EC50: > 150 µM (inactive)

## CCN=C(S)NNC(=O)c1cc(-c2ccccc2C)nc2ccccc12
[11]
  EC50: > 160 µM (inactive)
[12]
  EC50: 0.931 µM (active)
[13]
  EC50: > 180 µM (inactive)
[14]
  EC50: > 160 µM (inactive)

## CCOc1cc(CNc2ccc3c[nH]nc3c2)ccc1OC
[15]
  AC50: > 380 µM (inactive)
[16]
  IC50: 25.2 µM (active)
[17]
  EC50: 7.37 µM (active)

## NC(=O)c1ncn([C@@H]2O[C@H](CNCc3cccn3-c3ccncc3)[C@@H](O)[C@H]2O)n1
[8]
  AC50: 24 µM (active)

## CC1=CC(C)(C)n2c(O)c(/N=N/C(=N)S)c3cccc1c32
[5]
  IC50: > 20 µM (inactive)
[6]
  IC50: 6.09 µM (active)
[7]
  IC50: 4.79 µM (active)
